# US12673039B2, “Methods of inducing autophagy using coumarin derivatives and related compounds” (Buck Institute for Research on Aging, priority 2019, dated 2026)
# Key:
# UA44 worms = experiment: Dopaminergic neuronal loss in UA44 worms expressing human α-synuclein; format: in vivo, C. elegans
# Text: Panel A) Dopaminergic neuronal loss in day-5 UA44 worms was quantified by scoring percentage of worms with intact 4-CEP neurons in AIC106 and DMSO-control treatment.
# TFEB [1] = experiment: qPCR of TFEB and downstream target genes in differentiated SY5Y cells; format: cell-based, human; settings: qPCR (FIG. 6)
# Text: Relative expression of TFEB and downstream target genes as assessed by qPCR from mRNA extracted from differentiated SY5Y cells treated with C1 (AIC106) versus vehicle-treated controls. Values represent fold induction versus controls, *p<0.01. Run in triplicate in 3 independent experiments.
# In vitro drug screening studies. […] We utilized for these studies a 3000 compound natural product derivative library (Timtec, Newark, DE) in […] transfected with a sensitive TFEB promotor-Gaussian luciferase construct. […] C1 is a coumarin-related compound, part of a family of natural benzopyrones found in many edible plants.
# TFEB [2] = experiment: qRT-PCR of tfeb and its targets in N27 neuronal cells; format: cell-based, rat
# Method: FIG. 18, panels A-F: AIC106 (Autophagy Inducing Coumarin-106) induces transcription of TFEB and its targets in vitro in rat N27 neuronal cells and in vivo in C. elegans. Panel A) Relative fold change in TFEB promoter activity compared to DMSO-control was determined by quantifying luciferase activity in supernatants collected from rat N27 neuronal cells post-24 hour treatment with C1 (AIC106), D1 and D2. [n=3 independent experiments (mean±SEM), **p<0.01, by one-way ANOVA with Dunnett's multiple comparisons test]. Panel B) Chemical structure of AIC106 and its structural derivative D1 and D2. Panel C) Relative fold change in mRNA of tfeb and its targets compared to DMSO-control were quantified using qRT-PCR in N27 neuronal cells post-24 hour treatment with AIC106 [N=3 independent experiments (mean±SD). *p<0.05, **p<0.01 and ****p<0.0001, by two-way ANOVA with Sidak's multiple comparisons test]. Panel D) Changes in HLH-30 expression were measured by quantifying GFP intensity in an individual GFP-tagged HLH-30 strain (MAH235) post-24 hours treatment with AIC106 and DMSO-control. […] Panel E) HLH-30; GFP (MAH235) were monitored by fluorescence microscopy. Panel F) Relative fold change in mRNA of hlh-30 and its targets compared to DMSO-control were quantified using qRT-PCR in young adult wild type N2 worms post-24 hours treatment with AIC106. […]
smiles,measurement,setting,value
"O=c1oc2c3c4c(cc2c2c1CCC2)CCCN4CCC3 [C1, 2,3,6,7,10,11-Hexahydro-1H,5H-cyclopenta(3,4)(1)benzopyrano(6,7,8-ij)quinolizin-12(9H)-one]",neuronal loss,UA44 worms; strain expressing human α-synuclein within dopaminergic neurons,prevented neuronal loss
same,neuroprotection,UA44 worms; worms treated with hlh-30 RNAi,failed to show any neuroprotection
same,TFEB expression,TFEB [1],significant dose-dependent elevations in TFEB expression
same,downstream TFEB target genes,TFEB [1],up-regulation of several downstream TFEB target genes
same,TFEB mRNA levels,TFEB [2]; 24 hour treatment,increased TFEB mRNA levels
same,downstream TFEB target genes expression,"TFEB [2]; 24 hour treatment (FIG. 18, panel C)",increased expression of downstream TFEB target genes
